Paper PMC9841532, “Exploring the Effect of Halogenation in a Series of Potent and Selective A2B Adenosine Receptor Antagonists” (Journal of Medicinal Chemistry, 2022)

Tested on: human peripheral blood mononuclear cells (PBMCs)
Assay: Proliferation of CFSE-labeled activated PBMCs in the presence of adenosine
Assay type: cell-based
Settings: PBMCs + anti-CD3/CD28 + IL-2 + Ado 0.1 mM + compound 15 μM, 3 days
Text: To gain evidence supporting the role of the here optimized A2BAR antagonists in the context of cancer immunotherapy, it was decided to evaluate the effect of two representative compounds (16b and 16j) in the proliferative activity of a prototypical immune cell. The human peripheral blood mononuclear cells (PBMCs) were selected for the study; they are critical components of the immune system and are involved in both humoral and cell-mediated immunity. Ado-mediated blockade of PBMC proliferation is well documented and characterized;[51],[52] we therefore investigated whether our A2BAR antagonists (16b and 16j) can reverse the blockade of ADO-mediated proliferation in human PBMCs. PBMCs, isolated from a healthy donor, were labeled with carboxyfluorescein succinimidyl ester (CFSE) and then activated by adding anti-CD3/CD28 antibodies and interleukin 2 (IL-2). CFSE is a cell dye that allows for the determination of cell proliferation, as dividing cells progressively lose fluorescence.
Figure 10 Effect of compounds 16b and 16j on the proliferation of PBMCs stimulated with antiCD3/CD28 + IL-2 in the presence of adenosine (ADO). […] The frequency of proliferating cells (CFSE^dim) as well as their median fluorescence intensities were quantified and ratios calculated against the values of stimulated PBMCs with no further treatment. […]

| SMILES | frequency of proliferating cells (CFSEdim) |
| --- | --- |
| CC1=C(C(=O)OC(C)C)C(c2ccco2)n2c(nc3cc(F)ccc32)N1 (centres unmarked) [16b] | 9.14% |
| CC1=C(C(=O)OC(C)C)C(c2ccco2)n2c(nc3cc(Cl)ccc32)N1 (centres unmarked) [16j] | 6.54% |
